Earlier results as cited in US20220273015A1, “FORMULATIONS AND USES THEREOF” (priority 2021, published 2022).
Entries after “also recorded” stand apart in the source; their conditions may differ.

Experiments:
[1] = for Properties: properties in words from a review of the primary literature (PMIDs in the cell), wrapped cell lines; for Stability: best preserved in an alcoholic tincture
[2] = system: atypical/precancerous stem cells; conditions: used separately or together in one study
[3] = <1 ug daily, postoperative control of analgesia

O=C(O)CCCCC1CCSS1 (stereo not drawn) [Alpha-Lipoic Acid]
blood flow to damaged nerves, nerve conduction velocity, and other measures of nerve function ([1]; PMID 25381809): microcirculation (PMID 160261130), improves
diabetic polyneuropathy ([1]; PMID 160261130): improving
microcirculation ([1]; PMID 160261130): oxidative stress, aging, cancer, improves
oxidative stress, aging, cancer ([1]; PMID 160261130): reducing
antioxidant protection of lipids ([1]; such as those found in the myelin sheath of neurons): Antioxidant which specifically protects lipids

O=c1cc(-c2ccc(O)cc2)oc2cc(O)cc(O)c12 [Apigenin]
Anti-cancer / cytotoxic / antitumor properties ([1]; qualitative, PMID-cited): exerts an antitumor effect in preclinical models

C=C(C)[C@H]1CC=C(C)CC1 [D-limonene]
Antimicrobial, antiparasitic, insecticidal / insect repellent properties ([1]; qualitative, PMID-cited): a result. D-limonene has antimicrobial
Effects in animal models ([1]; qualitative, rodent/animal models, PMID-cited): more capable. D-limonene has a mild diuretic

O=C(O)c1cc(O)c(O)c(O)c1 [Gallic Acid]
antioxidant, anti-inflammatory, anti-microbial, anti-cancer activities ([1]; PMID 30657034): Powerful antioxidant, anti-inflammatory, anti-
preventing and treating acne ([1]; PMID 32390309, PMID 30617549): 23501608). Useful in preventing and treating
inhibitory properties against cancer ([1]; in vitro and in vivo, PMID 23501608): Plant polyphenol with strong inhibitory
NFKB, Akt, COX, ribonucleotide reductase and GSH pathways ([1]; mechanism of anti-cancer effect, PMID 23501608): (PMID 23501608) by inhibition of NFKB, Akt,
ATM kinase signaling ([1]; to prevent carcinogenesis, PMID 23501608): pathways; and also activates ATM kinase

CCCCC/C=C\C/C=C\CCCCCCCC(=O)O [Linoleic acid]
Wound healing / skin repair and skin health ([1]; qualitative, PMID-cited): shown to lighten UV-induced

CC(C)=CCC/C(C)=C/CC/C(C)=C/CC/C(C)=C/CC/C(C)=C/CC/C(C)=C/CC/C(C)=C/CC1=C(C)C(=O)c2ccccc2C1=O [MK7]
bone mineral density ([1]; by facilitating signaling cascades which improve translocation of calcium from the serum into the bony matrix, PMID 32244313): other vitamin K homologs. MK7 increases

CC(=O)N[C@@H](CS)C(=O)O [N-Acetyl Cysteine (NAC)]
Properties [1]: completely blocks Reactive Oxygen Species

CCCCCCCC/C=C\CCCCCCCC(=O)O [Oleic acid (OA)]
Safety / toxicity ([1]; qualitative): lead to heart failure (PMID 28391879) though
Skin penetration / delivery of ingredients across skin and membranes ([1]; qualitative, PMID-cited): Oleic acid (OA) enhances lipophilic penetration

CCCCCCCC/C=C\CCCCCCCC(=O)O [Oleic acid]
lipophilic penetration of skin cells ([1]; "may enhance", PMID 21871866, PMID 2367329): enhance lipophilic penetration of skin cells
effect on the cell membrane allowing for drug permeability ([1]; PMID 2235880): 21871866) and creates a temporary disruption
targeted drug delivery across the skin ([1]; PMID 2514720): facilitate targeted drug delivery across the skin

CCCCCCCCCCCCCCCC(=O)O [Palmitic Acid]
Wound healing / skin repair and skin health ([1]; qualitative, PMID-cited): Palmitic Acid is a saturated fat essential to skin

O=c1c(O)c(-c2ccc(O)c(O)c2)oc2cc(O)cc(O)c12 [Quercetin]
Anti-cancer / cytotoxic / antitumor properties ([1]; qualitative, PMID-cited): antitumor effects PMID 31880372) the ability

CCCCCCCCCCCCCCCCCC(=O)O [Stearic acid]
Metabolic and cardiovascular effects (lipids, blood pressure, glucose, clotting) ([1]; qualitative, PMID-cited): 10945745) and can increase the “good”
Wound healing / skin repair and skin health ([1]; qualitative, PMID-cited): a saturated fatty acid beneficial to skin; also recorded: important in wound healing of burns (PMID

O=C1CC[C@@]2(O)[C@H]3Cc4ccc(O)c5c4[C@@]2(CCN3CC2CC2)[C@H]1O5 [ULDN]
need for total amount of opioids following surgery [1, 3]: (reduces the need for total amount of opioids
side-effects of opioid-related treatment [1, 3]: following surgery and ameliorating side-effects

O=C1CC[C@@]2(O)[C@H]3Cc4ccc(O)c5c4[C@@]2(CCN3CC2CC2)[C@H]1O5 [VLDN]
tolerability of opioid-weaning methadone taper ([1]; <1 ug X <0.5 mg daily): VLDN: boosting tolerability of opioid-weaning

CC(C)=CCC[C@](C)(O)C1CC=C(C)CC1 (stereo partly drawn) [bisabolol]
Stability [1]: are very unstable and are best preserved in an

C=C1/C(=C\C=C2/CCC[C@]3(C)[C@@H]([C@H](C)/C=C/[C@@H](O)C4CC4)CC[C@@H]23)C[C@@H](O)C[C@@H]1O [calcipotriene]
chronic plaque psoriasis ([1]; topical application, PMID 10753146): topical application of calcipotriene improves

CCc1ccc(C)c2ccc(C)c-2c1 [chamazulene]
Stability [1]: are very unstable and are best preserved in an

COc1cc(/C=C/C(=O)CC(=O)/C=C/c2ccc(O)c(OC)c2)ccc1O [curcumin]
number of atypical/precancerous stem cells [2]: reduced

CCCCC/C=C\C/C=C\CCCCCCCC(=O)O [linoleic acid]
Safety / toxicity ([1]; qualitative): in high quantities is associated with higher rates
Wound healing / skin repair and skin health ([1]; qualitative, PMID-cited): polyunsaturated fat that improves skin barrier

COc1cc(CCC(C)=O)ccc1O [zingerone]
diuretic effect ([1]; observed only at a dose of 30 mg/kg in normal mice, PMID 20606379): Oil, zingerone exhibited a mild diuretic effect

Vitamin E
Properties [1]: skin barrier stabilizing properties (PMID
